Laboratory results taken from PMC7363588, “Mapping of the FGF14:Nav1.6 complex interface reveals FLPK as a functionally active peptide modulating excitability” (Physiological Reports, 2020).
Peptide text beside a SMILES is read from it.

How the values were obtained:
[1] = test system: FGF14^Y158A:Nav1.6 complex; assay: LCA, CLuc-FGF14^Y158A; format: cell-based, human; conditions: 50 µM peptide, 12 hr, HEK293, vs DMSO
FGF14 = molecular target: T1, FGF14 (Homo sapiens, UniProt Q92915); assay: SPR binding to FGF14; conditions: for binding to FGF14: SPR
T1 construct: aa 64–252); 6X His (N); made in house; host or cells: E. coli BL21 (DE3) pLys
T1 sequence (Q92915 64-252 isoform Q92915-2): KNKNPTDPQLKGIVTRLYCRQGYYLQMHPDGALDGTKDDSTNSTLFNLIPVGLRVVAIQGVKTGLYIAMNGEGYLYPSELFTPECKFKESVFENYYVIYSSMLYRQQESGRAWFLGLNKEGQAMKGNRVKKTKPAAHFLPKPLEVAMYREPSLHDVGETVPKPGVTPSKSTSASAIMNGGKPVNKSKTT
Text: Plasmids used in this study derived from the following clones: human FGF14‐1b isoform (accession number: NM_175929.2) and human Nav1.6 (accession number: NM_014191.3). The CLuc‐FGF14, CD4‐Nav1.6‐NLuc, constructs and the pcDNA3.1 vector (Invitrogen, Carlsbad, CA) were engineered and characterized as previously described (Goetz et al., 2009; Shavkunov et al., 2012,2013,2015; Ali et al., 2016, 2018; Wadsworth et al., 2019). The plasmid pGL3 expressing full length Firefly (Photinus pyralis) luciferase was a gift from Dr. P. Sarkar (Department of Neurology, UTMB). For protein purification studies, cDNAs encoding FGF14‐1b (accession number NP_787125; aa 64–252) or the C‐terminal tail of Nav1.6 (accession number #NP_001171455; aa 1756–1939) were subcloned into suitable pET bacterial expression vectors (pET28a‐FGF14; pET30a‐Nav1.6) with a 6X His‐tag at the N‐terminal site; these plasmids were a gift of Dr. Moosa Mohammadi (NYU, Langone Medical Center). The mutation coding for FGF14^V160A was generated by site‐directed mutagenesis and PCR using FGF14‐1b as a template described previously (Ali et al., 2016). For electrophysiological studies FGF14‐GFP (human) and FGF14‐ΔNT‐GFP (human) were cloned into the GFP plasmid (pQBI‐fC2; Quantum Biotechnology Inc., Montreal, Canada) as previously described.
Upon transformation with corresponding cDNA clones, the recombinant proteins FGF14, FGF14^V160A and Nav1.6 C‐terminal tail were expressed in E. coli BL21 (DE3) pLys (Invitrogen) after induction with 0.1 mM isopropyl thio‐β‐D‐galacto‐pyranoside (IPTG) for 24 hr at 16°C. After induction with IPTG, bacterial cells were harvested and lysed by sonication at 4°C in lysis/binding buffer containing following components (mM): sodium phosphate 10 (prepared from 0.5 M of Na2HPO4 and NaH2PO4) + 3‐cholamidopropyl dimethylammonio 1‐propanesulfonate 0.1% pH 7.0 (for FGF14 proteins) + HEPES 25 + NaCl 150 + glycerol 10% (Nav1.6) pH 7.5 and containing 0.1 mM phenyl methyl sulphonyl fluoride (PMSF). The respective proteins were centrifuged at 18,000 g for 30 min at 4°C. For purification of FGF14 and FGF14^V160A, the supernatant was applied to preequilibrated heparin and the proteins were then eluted with NaCl 0.2–2.0 M in the elution (sodium phosphate 10 mM + NaCl 0.2–2.0 M pH 7.0) buffer. For purification of the Nav1.6 C‐tail, the supernatant was applied first to Ni^2+ NTA column and eluted with imidazole (200 mM). The Nav1.6 C‐tail was further purified using HiTrap QFF‐sepharose column (GE Healthcare Bio‐Sciences, Pittsburgh, PA) with a buffer containing Tris‐HCl 50 mM and eluted with NaCl (10–500 mM) at pH 7.5. Finally, all concentrated proteins were purified on an AKTA FPLC purifier using Superdex 200 Hiload 16 × 60 columns (GE Healthcare Bio‐Sciences) and equilibrated in Tris‐HCl 50 mM + NaCl 150 mM, pH 7.5 (Ali et al., 2016; Scala et al., 2018).
SPR experiments were performed on a Biacore T100 (GE Healthcare Bio‐Sciences, Pittsburgh, PA), and the interaction of FGF14 and Nav1.6 channel toward FLPK, PLEV and EYYV (1–100 µM) were studied at 25°C. To analyze the effects of FLPK, PLEV and EYYV on FGF14^WT (RU 16,000), FGF14^V160A (RU 18,000) and Nav1.6 C‐tail (RU 12,000), the proteins were immobilized on CM5 sensor chip using Acetate 5.5 with Amine Coupling Kit (Biacore GE Healthcare Bio‐Sciences). No protein was coupled to the control flow channel of the chip. Using a flow rate of 50 µl/min, FLPK, PLEV and EYYV (1–100 µM) diluted in HBS‐P^+ buffer were injected over the chip for 180 s, followed by injection of HBS‐P+ for 180 s to monitor dissociation, and finally the chip surface was regenerated with NaCl (200 mM). For each peptide injection, nonspecific responses (buffer only) were subtracted from experimental sensograms/traces prior to data analysis. Maximal equilibrium responses were plotted against peptide concentrations and association rate constant (kon), dissociation rate constatnt (koff) were determined. […]

[2] = Biacore T100, CM5, 25°C, peptide 1–100 µM in HBS-P+ pH 7.4, FGF14 RU 16,000, N.M. = not measurable

Row | Compound | effect on FGF14^Y158A:Nav1.6 complex formation [1] | koff (FGF14; Biacore T100, CM5, 25°C, peptide 1–100 µM in HBS-P+ pH 7.4, FGF14 RU 16,000, N.M. = not measurable, read-out: koff, dissociation rate constant) [s⁻¹] | Kd (FGF14; Biacore T100, CM5, 25°C, peptide 1–100 µM, read-out: KD, equilibrium constant) [µM] | binding to FGF14 (FGF14; peptide 1–100 µM) | koff, dissociation rate constant (FGF14; [2]) | kon, association rate constant (FGF14; [2])
1 | CC(=O)N[C@@H](Cc1ccccc1)C(=O)N[C@@H](CC(C)C)C(=O)N1CCC[C@H]1C(=O)N[C@@H](CCCCN)C(N)=O [FLPK] (Ac-FLPK-NH2) | abolished the effect of FLPK | 0.000431 | 4.97 | only FLPK exhibited measurable affinity |  | 
2 | PLEV [tetrapeptide previously designed from FGF14:FGF14 dimer interface; docked with N-terminal acetylation and C-terminal amidation] | increased the inhibition |  |  | no appreciable affinity to either protein was detected | N.M. | N.M.
3 | EYYV [tetrapeptide previously designed from FGF14:FGF14 dimer interface; docked with N-terminal acetylation and C-terminal amidation] | increased the inhibition |  |  | no appreciable affinity to either protein was detected | N.M. | N.M.
